Test results as given in patent US10414769B2, “5,8-dimethyl-9-phenyl-5,8-dihydro-6H-pyrazolo[3,4-h]quinazolin-2-yl)-(1H-pyrazol-3-yl)-amines as IGF-1R/IR inhibitors” (Boehringer Ingelheim International GmbH, priority 2015, dated 2019).

Columns and labels:
Assay type in all cases: biochemical
CDK2/cyclin A = target: T1, CDK2/cyclin A (Homo sapiens, UniProt P24941); experiment: Z'-LYTE kinase selectivity assay CDK2/cyclin A; details: read-out: CDK2/CYCLINA % inhibition
T1 construct: purchased Life Technologies PV 3267
Excerpt: (§1) In order to compare the kinase selectivity of compounds (I) according to the invention with known prior art compounds the commercially provided SelectScreen® Kinase Profiling Service (Z′-LYTE®) was used (Life Technologies GmbH, Darmstadt, Germany) to investigate the ability of the compounds to inhibit a number of different, representatively selected human kinases. Further details regarding this service are available on the Life Technologies website at
(§2) The Z′-LYTE® biochemical assay employs a fluorescence-based, coupled-enzyme format and is based on the differential sensitivity of phosphorylated and non-phosphorylated peptides to proteolytic cleavage. The peptide substrate is labeled with two fluorophores—one at each end—that make up a FRET pair.
(§3) In the primary reaction, the kinase transfers the gamma-phosphate of ATP to a single tyrosine, serine or threonine residue in a synthetic FRET-peptide. In the secondary reaction, a site-specific protease recognizes and cleaves non-phosphorylated FRET-peptides. Phosphorylation of FRET-peptides suppresses cleavage by the Development Reagent. Cleavage disrupts FRET between the donor (i.e., coumarin) and acceptor (i.e., fluorescein) fluorophores on the FRET-peptide, whereas uncleaved, phosphorylated FRET-peptides maintain FRET. A ratiometric method, which calculates the ratio (the Emission Ratio) of donor emission to acceptor emission after excitation of the donor fluorophore at 400 nm, is used to quantitate reaction progress, as shown in the equation below.
(§4) The Test Compounds are screened at 1 μM.
The 2×CDK2/cyclin A (# PV 3267)/Ser/Thr 12 (Z′-LYTE® Kinase Assay Kit—Ser/Thr 12 Peptide, # PV 3673) mixture is prepared in 50 mM HEPES pH 7.5, 0.01% BRIJ-35, 10 mM MgCl2, 1 mM EGTA. The final 10 μL Kinase Reaction consists of 1.22-10.3 ng CDK2/cyclin A and 2 μM Ser/Thr 12 in 50 mM HEPES pH 7.5, 0.01% BRIJ-35, 10 mM MgCl2. 1 mM EGTA. After the 1 hour Kinase Reaction incubation, 5 μL of a 1:4096 dilution of Development Reagent A is added.

FRAP1 (mTOR) = target: T2, FRAP1 (mTOR) (Homo sapiens, UniProt P42345); experiment: Z'-LYTE kinase selectivity assay FRAP1 (mTOR)
T2 construct: purchased Life Technologies PR8683B
Excerpt: as §1, §2, §3, §4
The 2×FRAP1 (mTOR) (# PR8683B)/Ser/Thr 11 (Z′-LYTE® Kinase Assay Kit—Ser/Thr 11 Peptide, # PV 3670) mixture is prepared in 50 mM HEPES pH 7.5, 0.01% BRIJ-35, 10 mM MnCl2, 1 mM EGTA, 2 mM DTT, 0.02% NaN3. The final 10 μL Kinase Reaction consists of 11.1-56 ng FRAP1 (mTOR) and 2 μM Ser/Thr 11 in 50 mM HEPES pH 7.5, 0.01% BRIJ-35, 5 mM MgCl2, 5 mM MnCl2, 1 mM EGTA, 1 mM DTT, 0.01% NaN3. After the 1 hour Kinase Reaction incubation, 5 μL of a 1:16 dilution of Development Reagent B is added.

PAK4 = target: T3, PAK4 (Homo sapiens, UniProt O96013); experiment: Z'-LYTE kinase selectivity assay PAK4
T3 construct: purchased Life Technologies PV 4212
T3 sequence (O96013 whole entry): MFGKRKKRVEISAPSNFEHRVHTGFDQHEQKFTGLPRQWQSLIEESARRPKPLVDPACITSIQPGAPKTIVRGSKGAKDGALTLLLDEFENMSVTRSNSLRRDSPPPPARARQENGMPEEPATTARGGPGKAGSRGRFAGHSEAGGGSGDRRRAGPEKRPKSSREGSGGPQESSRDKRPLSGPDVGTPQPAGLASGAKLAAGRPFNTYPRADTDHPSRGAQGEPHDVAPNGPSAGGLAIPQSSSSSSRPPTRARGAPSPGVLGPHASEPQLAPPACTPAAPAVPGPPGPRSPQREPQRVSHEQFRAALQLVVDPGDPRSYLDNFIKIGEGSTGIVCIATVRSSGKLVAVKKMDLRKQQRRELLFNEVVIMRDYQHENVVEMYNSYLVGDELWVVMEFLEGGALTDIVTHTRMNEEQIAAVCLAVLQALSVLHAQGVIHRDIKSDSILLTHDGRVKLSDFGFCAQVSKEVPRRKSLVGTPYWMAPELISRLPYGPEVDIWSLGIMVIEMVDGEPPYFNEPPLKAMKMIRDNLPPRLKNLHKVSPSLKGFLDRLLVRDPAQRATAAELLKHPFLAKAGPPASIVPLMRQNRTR
Excerpt: as §1, §2, §3, §4
The 2×PAK4 (# PV 4212)/Ser/Thr 20 (Z′-LYTE® Kinase Assay Kit—Ser/Thr 20 Peptide, # PV 4532) mixture is prepared in 50 mM HEPES pH 7.5, 0.01% BRIJ-35, 10 mM MgCl2, 1 mM EGTA. The final 10 μL Kinase Reaction consists of 0.1-0.75 ng PAK4 and 2 μM Ser/Thr 20 in 50 mM HEPES pH 7.5, 0.01% BRIJ-35, 10 mM MgCl2, 1 mM EGTA. After the 1 hour Kinase Reaction incubation, 5 μL of a 1:512 dilution of Development Reagent A is added.

ROCK2 = target: T4, ROCK2 (Homo sapiens, UniProt O75116); experiment: Z'-LYTE kinase selectivity assay ROCK2
T4 construct: purchased Life Technologies PV 3759
T4 sequence (O75116 whole entry): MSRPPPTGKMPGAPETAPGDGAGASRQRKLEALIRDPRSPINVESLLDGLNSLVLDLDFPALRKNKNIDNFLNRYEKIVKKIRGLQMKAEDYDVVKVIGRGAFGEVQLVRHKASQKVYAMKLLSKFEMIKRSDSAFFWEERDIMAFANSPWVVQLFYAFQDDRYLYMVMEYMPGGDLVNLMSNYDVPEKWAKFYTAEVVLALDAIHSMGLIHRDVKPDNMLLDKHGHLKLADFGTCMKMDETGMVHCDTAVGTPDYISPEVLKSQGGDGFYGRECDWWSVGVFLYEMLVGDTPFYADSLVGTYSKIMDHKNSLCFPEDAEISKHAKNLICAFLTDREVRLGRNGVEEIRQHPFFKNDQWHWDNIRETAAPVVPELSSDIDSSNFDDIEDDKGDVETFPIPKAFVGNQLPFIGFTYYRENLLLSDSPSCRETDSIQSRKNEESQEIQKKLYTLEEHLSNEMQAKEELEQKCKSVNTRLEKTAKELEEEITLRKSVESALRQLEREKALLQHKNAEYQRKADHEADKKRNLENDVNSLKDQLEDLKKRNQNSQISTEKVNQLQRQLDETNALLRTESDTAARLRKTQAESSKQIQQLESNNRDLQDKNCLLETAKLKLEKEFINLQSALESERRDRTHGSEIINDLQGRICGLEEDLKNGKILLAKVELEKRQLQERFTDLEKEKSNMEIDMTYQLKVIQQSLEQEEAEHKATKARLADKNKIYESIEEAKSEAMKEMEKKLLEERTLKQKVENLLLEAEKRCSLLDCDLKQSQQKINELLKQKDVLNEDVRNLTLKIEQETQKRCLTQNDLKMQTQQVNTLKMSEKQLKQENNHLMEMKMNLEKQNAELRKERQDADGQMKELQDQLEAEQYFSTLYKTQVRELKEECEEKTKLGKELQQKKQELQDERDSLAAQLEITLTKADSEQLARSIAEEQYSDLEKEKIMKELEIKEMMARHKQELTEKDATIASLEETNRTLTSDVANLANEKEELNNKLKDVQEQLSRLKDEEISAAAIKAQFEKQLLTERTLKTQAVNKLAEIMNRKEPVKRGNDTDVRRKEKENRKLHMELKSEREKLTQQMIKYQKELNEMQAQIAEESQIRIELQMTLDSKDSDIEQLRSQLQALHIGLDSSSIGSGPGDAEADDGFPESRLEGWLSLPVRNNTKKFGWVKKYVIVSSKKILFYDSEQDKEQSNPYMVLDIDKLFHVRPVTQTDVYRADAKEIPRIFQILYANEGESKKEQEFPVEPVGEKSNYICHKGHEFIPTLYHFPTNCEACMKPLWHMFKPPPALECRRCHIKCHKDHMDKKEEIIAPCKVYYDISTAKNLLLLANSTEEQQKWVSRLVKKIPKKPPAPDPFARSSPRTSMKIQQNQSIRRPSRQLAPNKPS
Excerpt: as §1, §2, §3, §4
The 2×ROCK2 (# PV 3759)/Ser/Thr 13 (Z′-LYTE® Kinase Assay Kit—Ser/Thr 13 Peptide, # PV 3793) mixture is prepared in 50 mM HEPES pH 7.5, 0.01% BRIJ-35, 10 mM MgCl2. 1 mM EGTA. The final 10 μL Kinase Reaction consists of 0.62-4.13 ng ROCK2 and 2 μM Ser/Thr 13 in 50 mM HEPES pH 7.5, 0.01% BRIJ-35, 10 mM MgCl2, 1 mM EGTA. After the 1 hour Kinase Reaction incubation, 5 μL of a 1:1024 dilution of Development Reagent A is added.

CAMK2D (CaMKII delta) = target: T5, CAMK2D (CaMKII delta) (Homo sapiens, UniProt Q13557); experiment: Z'-LYTE kinase selectivity assay CAMK2D
T5 construct: purchased Life Technologies PV 3373
Excerpt: as §1, §2, §3, §4
The 2×CAMK2D (CaMKII delta) (# PV 3373)/Ser/Thr 04 (Z′-LYTE® Kinase Assay Kit—Ser/Thr 4 Peptide, # PV 3177) mixture is prepared in 50 mM HEPES pH 7.5, 0.01% BRIJ-35, 10 mM MgCl2, 1 mM EGTA, 4 mM CaCl2), 800 U/mL Calmodulin, 0.02% NaN3. The final 10 μL Kinase Reaction consists of 0.08-0.74 ng CAMK2D (CaMKII delta) and 2 μM Ser/Thr 04 in 50 mM HEPES pH 7.5, 0.01% BRIJ-35, 10 mM MgCl2, 1 mM EGTA, 2 mM CaCl2), 400 U/mL Calmodulin, 0.01% NaN3. After the 1 hour Kinase Reaction incubation, 5 μL of a 1:1024 dilution of Development Reagent A is added.

| Structure (SMILES) | inhibition at 1 µM (CDK2/cyclin A) [%] | inhibition at 1 µM (FRAP1 (mTOR)) [%] | inhibition at 1 µM (PAK4) [%] | inhibition at 1 µM (ROCK2) [%] | inhibition at 1 µM (CAMK2D (CaMKII delta)) [%] |
| --- | --- | --- | --- | --- | --- |
| C[C@@H]1Cc2nn(C)c(-c3ccccc3)c2-c2nc(Nc3ccn(CCN4CCN(CC(C)(C)O)CC4)n3)ncc21 [Compound I-3] | 66 | -10 | 39 | 7 | 58 |
| C[C@@H]1Cc2nn(C)c(-c3ccccc3)c2-c2nc(Nc3ccn(CCN4CCN(C)CC4)n3)ncc21 [Compound I-1] | 72 | -6 | 14 | 1 | 53 |
| C[C@@H]1Cc2nn(C)c(-c3ccccc3)c2-c2nc(Nc3ccn(CCN4CCOCC4)n3)ncc21 [Compound I-2] | 56 | 1 | 24 | 6 | 47 |

Further lines, results first:

| inhibition at 1 µM (CDK2/cyclin A) [%] | inhibition at 1 µM (FRAP1 (mTOR)) [%] | inhibition at 1 µM (PAK4) [%] | inhibition at 1 µM (ROCK2) [%] | inhibition at 1 µM (CAMK2D (CaMKII delta)) [%] | Structure (SMILES) |
| --- | --- | --- | --- | --- | --- |
| 63 | -12 | 32 | 3 | 69 | C[C@@H]1Cc2nn(C)c(-c3ccccc3)c2-c2nc(Nc3ccn(CCN4CCN(CC5CCCO5)CC4)n3)ncc21 (some centres unmarked) [Compound I-9] |
| 53 | -11 | 27 | 9 | 38 | COCCN1CCN(CCn2ccc(Nc3ncc4c(n3)-c3c(nn(C)c3-c3ccccc3)C[C@H]4C)n2)CC1 [Compound I-11] |
| 49 | -8 | 21 | 7 | 40 | C[C@@H]1Cc2nn(C)c(-c3ccccc3)c2-c2nc(Nc3ccn(CCN4CCN(CC(=O)OC5CCOCC5)CC4)n3)ncc21 [Compound I-8] |
| 74 | 3 | 19 | 9 | 64 | CC(O)CN1CCN(CCn2ccc(Nc3ncc4c(n3)-c3c(nn(C)c3-c3ccccc3)C[C@H]4C)n2)CC1 (some centres unmarked) [Compound I-7] |
